Laboratory results reported in patent publication US6534277B1, “Method for identifying a compound to be tested for an ability to reduce immune rejection by determining Stat4 and Stat6 proteins” (Millennium Pharmaceuticals, Inc., priority 2000, dated 2003).
Entries after “also recorded” stand apart in the source; their conditions may differ.

How the values were obtained:
[1] = test system: CD154 expression by CD3 mAb-activated CD4+ splenic T cells; assay: Activation-induced CD154 expression by CD4+ T cells, dual color flow cytometry; format: cell-based, mouse; settings: 7 hr, plate-bound CD3 mAb; for suppression (inhibition) of activation-induced CD154 expression: 125 ng/ml cyclosporin A, 20 ng/ml rapamycin, 100 μg/ml methylprednisolone, 1 μM mycophenolate mofetil, three experiments; for effect on activation-induced CD154 expression, in words: drug concentrations as b343 (10 μM lactacystin, 10 μM MG-273)
Procedure: Six-well plates (Costar) were pre-coated overnight with 1 μg/ml of […] anti-mouse CD3 mAb (2C11). After washing with media (RPMI supplemented with 10% fetal bovine serum, 50 U/ml penicillin, 50 μg/ml streptomycin, 2 mM glutamine and 50 μM 2-mercaptoethanol) one ml of media containing 2× final drug concentration was added to each well. After testing of a range of concentrations of each agent, the optimal final physiologic drug concentrations for the data to be reported were 125 ng/ml cyclosporin A, 20 ng/ml rapamycin. 100 μg/ml methylprednisolone, 1 μM mycophenolate mofetil, 10 μm lactacystin and 10 μM MG-273. Cells were obtained from mechanically disrupted spleens and, after collection by centrifugation and washing once with media, one ml aliquots containing two million viable splenocytes were added to each well. Cultures were incubated at 37° C. in 5% CO2 for 7 hr. and were then diluted two-fold with chilled media containing 0.1% sodium azide (FACS media). Cells were collected by centrifugation at 4° C., resuspended in FACS media containing 1 μg Fc Block (PharMingen) and incubated on ice for 15 min. Samples were then split and either a mixture of 1 μg each of FITC-conjugated CD4-specific mAb and PE-conjugated control hamster IgG mAb or FITC-conjugated CD4-specific mAb and PE-conjugated CD154-specific mAb were added. After a 30 min incubation on ice, cells were washed twice and analyzed on a Becton Dickinson FACScan using Cell Quest software. Viable CD4+ lymphocytes were gated using a combination of forward/side scatter and CD4 staining.

[2] = test system: BALB/c cardiac allograft in B6/129 wild-type mice; assay: Heterotopic cardiac allograft survival, BALB/c donors into B6/129 wild-type recipients; format: in vivo, mouse; settings: with CD154 mAb/DST, rapamycin 0.2 mg/kg/d i.p., cyclosporin A 10 mg/kg/d i.p., methylprednisolone 1 mg/kg i.p., PS-519 1 mg/kg/d i.p., p<0.001
Procedure: Heterotopic cardiac allografting was performed with anastomoses to the abdominal aorta and vena cava (Hancock et al., 1998, Nature Medicine 4:1392-1396), using BALB/c donors and B6/129 wild-type or […] mice as recipients. Recipients were treated with hamster IgG or hamster anti-mouse (CD40L mAb; 250 μg, administered intravenously) plus DST (5×10^6 splenic mononuclear cells) at the time of transplantation (Hancock et al., 1998, Nature Medicine 4:1392-1396).
Heterotopic cardiac allografting was performed with anastomoses to the abdominal aorta and vena cava (Hancock, W. W. et al., 1998, Nature Medicine 4:1392-1396), using BALB/c donors and B6/129 wild-type or NF-κB/p50 KO mice as recipients (n=6/group). Recipients were treated with hamster IgG or hamster anti-mouse CD154 mAb (250 μg, i.v.) plus DST (“donor specific transfusion”; 5×10^6 splenic mononuclear cells) at the time of transplantation (Hancock, W. W. et al., 1998, Nature Medicine 4:1392-1396). […] Graft survival was monitored by daily palpation, and rejection was confirmed by laparotomy and histologic evaluation.
Heterotopic cardiac allografting was performed with anastomoses to the abdominal aorta and vena cava, using BALB/c donors and B6/129 wild-type or Stat-6 KO mice as recipients (n=6/group). […] Graft survival was monitored by daily palpation and rejection was confirmed by laparotomy and histologic evaluation.

Compound | suppression (inhibition) of activation-induced CD154 expression [1] [%] | effect of concomitant agent on the effects (efficacy) of CD154 mAb therapy on allograft survival ([2]; listed as lactacystin-derived (LC) proteasome inhibitor) | effect of concomitant agent on the effects (efficacy) of CD154 mAb therapy on allograft survival ([2]; listed as proteasome inhibitor) | effect on activation-induced CD154 expression, in words [1]
C[C@H]1C[C@@H]2[C@H]([C@@H](O)C[C@@]3(C)[C@H]2CC[C@]3(O)C(=O)CO)[C@@]2(C)C=CC(=O)C=C12 [methylprednisolone, 6α-methylprednisolone] | > 90 | – | – | –
CO[C@H]1C[C@@H]2CC[C@@H](C)[C@@](O)(O2)C(=O)C(=O)N2CCCC[C@H]2C(=O)O[C@H]([C@H](C)C[C@@H]2CC[C@@H](O)[C@H](OC)C2)CC(=O)[C@H](C)/C=C(\C)[C@@H](O)[C@@H](OC)C(=O)[C@H](C)C[C@H](C)/C=C/C=C/C=C/1C [rapamycin] | < 20 | – | – | –
CCC[C@H]1C(=O)N[C@@]2([C@@H](O)C(C)C)C(=O)O[C@@H]12 [PS-519] | – | significantly impaired | blocked | –
COc1c(C)c2c(c(O)c1C/C=C(\C)CCC(=O)OCCN1CCOCC1)C(=O)OC2 [mycophenolate mofetil] | < 10 | – | – | complete lack of effect
CC(C)C[C@H](NC(=O)[C@H](Cc1cccc2ccccc12)NC(=O)N1CCOCC1)B(O)O [MG-273] | – | – | – | significantly decreased; also recorded: significantly blocked
